The values below come from patent publication US20110077270A1, “Compositions and Methods for Treating Ocular Inflammation with Lower Risk of Increased Intraocular Pressure” (priority 2009, published 2011).

Common to all, as to format: in vivo
For assay [1], the system named is rabbit paracentesis model. Briefly: Clinical evaluation (slit lamp clinical score), rabbit paracentesis model. Set-up: key to Clinical Score −180 min / Clinical Score −5 min / Clinical Score +115 min: 0: normal; 1: discrete dilatation of iris and conjunctival vessels; 2: moderate dilatation of iris and conjunctival vessels; 3: intense iridal hyperemia with flare in the anterior chamber; 4: intense iridal hyperemia with flare in the anterior chamber and presence of fibrinous exudates. The conditions noted are these: for Clinical Score −5 min: 5 min before first paracentesis; for Clinical Score −5 min / Clinical Score +115 min / Clinical Score −180 min: individual eye; for Clinical Score +115 min: 5 min before second paracentesis; for Clinical Score −180 min: basal.

In assay [2] the test system is protein concentration in the aqueous humor. Nature of the assay: Protein measurement in aqueous humor, rabbit paracentesis model. The conditions noted are these: second paracentesis; for Protein level in aqueous humor, Mean: group mean; for Protein level in aqueous humor: individual eye. As to the method: (§1) Each rabbit was placed in a restraint device and tagged with the alphanumeric code. The formulations were instilled (50 μl) into the conjunctival sac of both eyes 180, 120, 90 and 30 min before the first paracentesis; then 15, 30, 90 min after the first paracentesis. To perform the first paracentesis the animals were anaesthetized by intravenous injection of 5 mg/kg Zoletil® (Virbac; 2.5 mg/kg tiletamine HCl and 2.5 mg/kg zolazepam HCl) and one drop of local anesthetic (Novesina®, Novartis) was administered to the eye. Anterior chamber paracentesis was performed with a 26 G needle attached to a tuberculin syringe; the needle was introduced into the anterior chamber through the cornea, taking care not to damage the tissues. Two hours after the first paracentesis, the animals were sacrificed with 0.4 ml Tanax® (Intervet International B.V.) and the second paracentesis was performed. About 100 μl of aqueous humor were removed at the second paracentesis. Aqueous humor was immediately split in four aliquots and stored at −80° C. until analysis. Then both eyes were enucleated and the iris-ciliary body was carefully excised, placed in polypropylene tubes, and stored at −80° C. until analysis.
For protein concentration determination in the aqueous humor we used the Protein Quantification Kit (Fluka; Cat. No. 77371; Lot. No. 1303129). Five microliters of aqueous humor were diluted to 100 μl with water. Twenty microliters of samples and of standards were load into a 96-well plate and recorded in a plate layout. Samples were treated following the assay procedure described in the kit. A microplate reader (GDV, Italy; model DV 990 B/V6) set at 670 nm was used for making the calibration and analyzing the samples.

For assay [3], the system named is leukocytes (PMN) in aqueous humor. Nature of the assay: Leukocytes (PMN) measurement in aqueous humor, rabbit paracentesis model. The settings on record: second paracentesis; for PMN numbers in aqueous humor: individual eye. As to the method:
as §1
For the determination of the number of leukocytes we used a haemocytometer (Improved Neubauer Chamber; Bright-line, Hausser Scientific) and a Polyvar 2 microscope (Reichert-Jung).

The subject of assay [4] is rabbit paracentesis model. Nature of the assay: Pupillary diameter measurement, rabbit paracentesis model. The settings on record: individual eye; for Pupillary diameter T1: −180 min: 50 μl drops, basal; for Pupillary diameter T2: −5 min: 5 min before first paracentesis; for Pupillary diameter T3: +115 min: 5 min before second paracentesis; for Pupillary diameter Δ(T3 − T1): +115 min minus −180 min. The protocol: as §1
The pupillary diameter of both eyes was measured with a Castroviejo caliper 180 min and 5 min before the first paracentesis and 5 min before the second paracentesis.

For assay [5], the system named is MPO activity in iris-ciliary body. Briefly: Myeloperoxidase (MPO) activity in iris-ciliary body, rabbit paracentesis model. The settings on record: for MPO Unit/g: iris-ciliary body samples collected after the second paracentesis, individual eye samples; for MPO activity in iris-ciliary body, Mean: after second paracentesis, group mean. As to the method: as §1
The activity of MPO was measured as previously described by Williams et al.[5] The iris-ciliary bodies were carefully dried, weighed and immersed in 1 ml of hexa-decyl-trimethyl-ammonium bromide solution. Then, the samples were sonicated for 10 sec on ice by a ultrasound homogenizer (HD 2070, Bandelin electronic), freeze-thawed three times, sonicated for 10 sec and centrifuged at 14,000 g for 10 min to remove cellular debris. An aliquot of the supernatant ([…] was diluted to 3 ml with the o-dianisidine 2HCl/H2O2 solution. The change in absorbance at 460 nm was continuously monitored for 5 min by a spectrophotometer (UV/Vis Spectrometer Lambda EZ 201; Perkin Elmer). The slope of the line (Δ/min) was determined for each sample and used to calculate the number of units of MPO in the tissue as follows:
were ε=11.3 mM^−1. Values were expressed as units of MPO/g of tissue.

In assay [6] the test system is PGE2 in the aqueous humor. Nature of the assay: Prostaglandin E2 (PGE2) measurement in aqueous humor, rabbit paracentesis model. The settings on record: second paracentesis; for PGE2 level in aqueous humor, Mean: group mean; for PGE2 level in aqueous humor: individual eye. The protocol: as §1
For the quantitative determination of PGE2 in the aqueous humor we used the PGE2 Immunoassay kit (R&D Systems; Cat. No. KGE004; Lot. No. 240010). Eleven microliters or 16 μl of aqueous humor were diluted to 110 μl or 160 μl with the calibrator diluent solution provided with the kit. One hundred microliters of samples and of standards were load into a 96-well plate and recorded in a plate layout. Samples were treated following the assay procedure described in the kit. A microplate reader (GDV, Italy; model DV 990 B/V6) set at 450 nm (wavelength correction at 540 nm) was used for making the calibration and analyzing the samples.

Where [7] appears, read: 0.5% topical formulation, +115 min.

“And” between values parts separate entries of the source, which are not always exact repeats. Identical values can stand only once.

`CCOC(=O)O[C@]1(C(=O)OCCl)CC[C@H]2[C@@H]3CCC4=CC(=O)C=C[C@]4(C)[C@H]3[C@@H](O)C[C@@]21C` [LE, loteprednol etabonate, reference compound]: in assay [1] (0.5% topical formulation), the “Clinical Score −5 min” value came out at 0; the “Clinical Score +115 min” value is 2 (2×) and 1 (6×); the “Clinical Score −180 min” value is on record as 0. Besides, in assay [1] (setting [7]), the “Percentage of eyes with clinical score 1” value turned out to be 75% and the “Percentage of eyes with clinical score 2” value came out at 25%. For the same compound, the “Clinical score, p versus CTR” value in assay [1] (0.5% topical formulation, Kruskal-Wallis, Dunn) is recorded as < 0.05. For the same compound, the “Percentage of eyes with clinical score 0” value in assay [1] (0.5% topical formulation, −5 min) was found to be 100%. The “Percentage of eyes with clinical score 0” value in assay [1] (0.5% topical formulation, −180 min (basal)) was determined as 100%. Besides, in assay [2] (0.5% topical formulation), the “Protein level in aqueous humor, Mean” value came to 33.905 mg/mL; the “Protein level in aqueous humor” value was 36.14 mg/mL and 39.10 mg/mL and 34.69 mg/mL and 26.10 mg/mL and 26.30 mg/mL and 28.16 mg/mL and 40.90 mg/mL and 39.85 mg/mL. The “PMN numbers in aqueous humor, Mean” value in assay [3] (0.5% topical formulation, group mean) came to 28.333 number/μl. In assay [3] (0.5% topical formulation), the “PMN numbers in aqueous humor” value is 40 number/μl (2×) and 20 number/μl (3×) and 30 number/μl. Moreover, in assay [4] (0.5% topical formulation), the “Pupillary diameter T1: −180 min” value was 6.0 mm (3×) and 6.5 mm (5×); the “Pupillary diameter T2: −5 min” value is 6.0 mm (3×) and 6.5 mm (5×); the “Pupillary diameter T3: +115 min” value was 4.5 mm and 5.0 mm (2×) and 5.5 mm (2×) and 6.0 mm (3×); the “Pupillary diameter Δ(T3 − T1)” value was −1.5 mm (2×) and −1.0 mm (3×) and 0.0 mm and −0.5 mm (2×). The “MPO Unit/g” value in assay [5] (0.5% LE) was 0.30 Unit/g and 0.51 Unit/g and 0.81 Unit/g and 0.60 Unit/g and 0.73 Unit/g and 1.01 Unit/g. Moreover, in assay [5] (0.5% topical formulation), the “MPO activity in iris-ciliary body, Mean” value is listed as 0.661 MPO Unit/g. In assay [6] (0.5% topical formulation), the “PGE2 level in aqueous humor, Mean” value stood at 0.672 ng/mL; the “PGE2 level in aqueous humor” value was “^2N/D and 0.23 ng/ml and 0.68 ng/ml and 1.10 ng/ml”.
For `CC(C(=O)O)c1ccc(-c2ccccc2)c(F)c1` (centres unmarked) [F, flurbiprofen, reference compound], in assay [1] (0.03% topical formulation), the “Clinical Score −5 min” value is 0, the “Clinical Score +115 min” value stood at 2 and the “Clinical Score −180 min” value came out at 0. Besides, in assay [1] (0.03% topical formulation, +115 min), the “Percentage of eyes with clinical score 2” value was 100%. Also, the “Percentage of eyes with clinical score 0” value in assay [1] (0.03% topical formulation, −5 min) is 100%. In assay [1] (0.03% topical formulation, −180 min (basal)), the “Percentage of eyes with clinical score 0” value worked out at 100%. In assay [2] (0.03% topical formulation), the “Protein level in aqueous humor, Mean” value amounted to 20.910 mg/mL; the “Protein level in aqueous humor” value is 20.78 mg/mL and 28.80 mg/mL and 23.41 mg/mL and 20.21 mg/mL and 17.53 mg/mL and 15.12 mg/mL and 20.52 mg/mL. In assay [3] (0.03% topical formulation), the “PMN numbers in aqueous humor” value is 50 number/μl and 40 number/μl (2×) and 20 number/μl (2×) and 10 number/μl and 30 number/μl. For the same compound, in assay [4] (0.03% topical formulation), the “Pupillary diameter T1: −180 min” value is 5.0 mm (2×) and 7.0 mm and 6.0 mm (4×) and 5.5 mm; the “Pupillary diameter T2: −5 min” value was 6.0 mm (3×) and 6.5 mm (3×) and 7.0 mm and 5.5 mm; the “Pupillary diameter T3: +115 min” value was 4.0 mm and 3.5 mm and 5.5 mm (2×) and 5.0 mm (2×) and 4.5 mm and 6.0 mm; the “Pupillary diameter Δ(T3 − T1)” value is −1.0 mm (3×) and −1.5 mm (3×) and 0.0 mm (2×). Moreover, the “MPO Unit/g” value in assay [5] (0.03% F) was 1.10 Unit/g and 1.70 Unit/g and 0.34 Unit/g and 0.75 Unit/g and 0.74 Unit/g and 0.63 Unit/g and 0.73 Unit/g and 1.27 Unit/g. In addition, in assay [5] (0.03% topical formulation), the “MPO, p vs CTR” value is listed as < 0.01 and the “MPO activity in iris-ciliary body, Mean” value was determined as 0.906 MPO Unit/g. In assay [6] (0.03% topical formulation), the “PGE2 level in aqueous humor, Mean” value was found to be 1.189 ng/mL; the “PGE2 level in aqueous humor” value is 1.04 ng/ml and 0.75 ng/ml and 0.85 ng/ml and 1.11 ng/ml and 2.11 ng/ml (2×) and 0.93 ng/ml and 0.61 ng/ml.
